In the NIST ThermoML archive (doi:10.1016/j.jct.2016.12.033):
Numbers after ± are expanded uncertainties.

Assay: mn = molality of the nth substance listed, in mol/kg
Details: 101.3 kPa, Liquid; for viscosity: Capillary tube (Ostwald / Ubbelohde) method; for mass density: Pycnometric method

Cc1ncc(CO)c(CO)c1O.Cl [5-hydroxy-6-methyl-3,4-pyridinedimethanol hydrochloride] + O
Details | mass density [kg/m3] | viscosity [mPa·s]
275.15 K, m1 = 0.0101 | 1000.6 ± 0.28 | 1.687 ± 0.035
275.15 K, m1 = 0.0204 | 1001.28 ± 0.28 | 1.695 ± 0.035
275.15 K, m1 = 0.03 | 1001.91 ± 0.28 | 1.703 ± 0.035
275.15 K, m1 = 0.0357 | 1002.27 ± 0.28 | 1.706 ± 0.035
275.15 K, m1 = 0.0401 | 1002.55 ± 0.28 | 1.708 ± 0.035
275.15 K, m1 = 0.0454 | 1002.9 ± 0.28 | 1.712 ± 0.036
275.15 K, m1 = 0.0505 | 1003.22 ± 0.28 | 1.719 ± 0.036
275.15 K, m1 = 0.0557 | 1003.54 ± 0.28 | 1.722 ± 0.036
275.15 K, m1 = 0.0695 | 1004.4 ± 0.28 | 1.725 ± 0.036
275.15 K, m1 = 0.0766 | 1004.84 ± 0.28 | 1.73 ± 0.036
275.15 K, m1 = 0.0801 | 1005.06 ± 0.28 | 1.735 ± 0.036
275.15 K, m1 = 0.0857 | 1005.41 ± 0.29 | 1.737 ± 0.036
275.15 K, m1 = 0.0882 | 1005.58 ± 0.29 | 1.739 ± 0.036
275.15 K, m1 = 0.1004 | 1006.38 ± 0.29 | 1.75 ± 0.036
277.15 K, m1 = 0.0099 | 1000.61 ± 0.28 | 1.576 ± 0.033
277.15 K, m1 = 0.0202 | 1001.27 ± 0.28 | 1.58 ± 0.033
277.15 K, m1 = 0.0252 | 1001.59 ± 0.28 | 1.584 ± 0.033
277.15 K, m1 = 0.0299 | 1001.89 ± 0.28 | 1.588 ± 0.033
277.15 K, m1 = 0.035 | 1002.22 ± 0.28 | 1.592 ± 0.033
277.15 K, m1 = 0.04 | 1002.54 ± 0.28 | 1.597 ± 0.033
277.15 K, m1 = 0.0497 | 1003.15 ± 0.28 | 1.603 ± 0.033
277.15 K, m1 = 0.0598 | 1003.79 ± 0.28 | 1.606 ± 0.033
277.15 K, m1 = 0.0658 | 1004.16 ± 0.28 | 1.607 ± 0.033
277.15 K, m1 = 0.0683 | 1004.32 ± 0.28 | 1.609 ± 0.033
277.15 K, m1 = 0.0753 | 1004.75 ± 0.28 | 1.615 ± 0.034
277.15 K, m1 = 0.0797 | 1005.02 ± 0.28 | 1.619 ± 0.034
277.15 K, m1 = 0.0882 | 1005.55 ± 0.28 | 1.625 ± 0.034
277.15 K, m1 = 0.1004 | 1006.29 ± 0.28 | 1.629 ± 0.034
279.15 K, m1 = 0.01 | 1000.56 ± 0.27 | 1.477 ± 0.031
279.15 K, m1 = 0.0199 | 1001.18 ± 0.27 | 1.479 ± 0.031
279.15 K, m1 = 0.0253 | 1001.51 ± 0.27 | 1.484 ± 0.031
279.15 K, m1 = 0.0298 | 1001.8 ± 0.27 | 1.488 ± 0.031
279.15 K, m1 = 0.0351 | 1002.13 ± 0.27 | 1.495 ± 0.031
279.15 K, m1 = 0.0397 | 1002.42 ± 0.27 | 1.5 ± 0.031
279.15 K, m1 = 0.0492 | 1003 ± 0.27 | 1.499 ± 0.031
279.15 K, m1 = 0.055 | 1003.36 ± 0.27 | 1.507 ± 0.031
279.15 K, m1 = 0.0578 | 1003.53 ± 0.27 | 1.505 ± 0.031
279.15 K, m1 = 0.0648 | 1003.96 ± 0.28 | 1.515 ± 0.031
279.15 K, m1 = 0.069 | 1004.22 ± 0.28 | 1.522 ± 0.032
279.15 K, m1 = 0.0798 | 1004.9 ± 0.28 | 1.524 ± 0.032
279.15 K, m1 = 0.0897 | 1005.51 ± 0.28 | 1.53 ± 0.032
279.15 K, m1 = 0.0996 | 1006.16 ± 0.28 | 1.535 ± 0.032

O=C1O[C@H]([C@@H](O)CO)C([O-])=C1O.[Na+] [sodium L-ascorbate] + O
Details | mass density [kg/m3] | viscosity [mPa·s]
275.15 K, m1 = 0.01 | 1001.05 ± 0.29 | 1.68 ± 0.035
275.15 K, m1 = 0.0201 | 1002.2 ± 0.29 | 1.691 ± 0.035
275.15 K, m1 = 0.0303 | 1003.31 ± 0.29 | 1.703 ± 0.035
275.15 K, m1 = 0.0348 | 1003.83 ± 0.29 | 1.703 ± 0.035
275.15 K, m1 = 0.04 | 1004.41 ± 0.29 | 1.706 ± 0.035
275.15 K, m1 = 0.0451 | 1004.94 ± 0.29 | 1.708 ± 0.035
275.15 K, m1 = 0.05 | 1005.5 ± 0.29 | 1.718 ± 0.036
275.15 K, m1 = 0.0598 | 1006.59 ± 0.29 | 1.727 ± 0.036
275.15 K, m1 = 0.0699 | 1007.71 ± 0.29 | 1.736 ± 0.036
275.15 K, m1 = 0.0749 | 1008.27 ± 0.29 | 1.745 ± 0.036
275.15 K, m1 = 0.0835 | 1009.12 ± 0.29 | 1.748 ± 0.036
275.15 K, m1 = 0.0849 | 1009.32 ± 0.29 | 1.747 ± 0.036
275.15 K, m1 = 0.0902 | 1009.85 ± 0.29 | 1.757 ± 0.036
275.15 K, m1 = 0.0999 | 1010.96 ± 0.29 | 1.765 ± 0.037
277.15 K, m1 = 0.01 | 1001.09 ± 0.28 | 1.572 ± 0.033
277.15 K, m1 = 0.02 | 1002.17 ± 0.28 | 1.578 ± 0.033
277.15 K, m1 = 0.0301 | 1003.31 ± 0.28 | 1.586 ± 0.033
277.15 K, m1 = 0.0351 | 1003.85 ± 0.28 | 1.591 ± 0.033
277.15 K, m1 = 0.0402 | 1004.45 ± 0.28 | 1.595 ± 0.033
277.15 K, m1 = 0.05 | 1005.5 ± 0.28 | 1.601 ± 0.033
277.15 K, m1 = 0.0601 | 1006.59 ± 0.28 | 1.609 ± 0.033
277.15 K, m1 = 0.065 | 1007.13 ± 0.28 | 1.616 ± 0.034
277.15 K, m1 = 0.0697 | 1007.7 ± 0.28 | 1.619 ± 0.034
277.15 K, m1 = 0.075 | 1008.2 ± 0.28 | 1.626 ± 0.034
277.15 K, m1 = 0.0798 | 1008.75 ± 0.29 | 1.628 ± 0.034
277.15 K, m1 = 0.0851 | 1009.29 ± 0.29 | 1.634 ± 0.034
277.15 K, m1 = 0.0898 | 1009.82 ± 0.29 | 1.641 ± 0.034
277.15 K, m1 = 0.1003 | 1010.95 ± 0.29 | 1.646 ± 0.034
279.15 K, m1 = 0.0105 | 1001.12 ± 0.28 | 1.479 ± 0.031
279.15 K, m1 = 0.0201 | 1002.16 ± 0.28 | 1.482 ± 0.031
279.15 K, m1 = 0.0301 | 1003.23 ± 0.28 | 1.491 ± 0.031
279.15 K, m1 = 0.0348 | 1003.74 ± 0.28 | 1.494 ± 0.031
279.15 K, m1 = 0.0402 | 1004.33 ± 0.28 | 1.498 ± 0.031
279.15 K, m1 = 0.045 | 1004.84 ± 0.28 | 1.503 ± 0.031
279.15 K, m1 = 0.0501 | 1005.39 ± 0.28 | 1.506 ± 0.031
279.15 K, m1 = 0.0602 | 1006.49 ± 0.28 | 1.516 ± 0.031
279.15 K, m1 = 0.065 | 1007.01 ± 0.28 | 1.52 ± 0.032
279.15 K, m1 = 0.0699 | 1007.54 ± 0.28 | 1.531 ± 0.032
279.15 K, m1 = 0.0752 | 1008.12 ± 0.28 | 1.532 ± 0.032
279.15 K, m1 = 0.0852 | 1009.19 ± 0.28 | 1.538 ± 0.032
279.15 K, m1 = 0.0904 | 1009.74 ± 0.28 | 1.541 ± 0.032
279.15 K, m1 = 0.1005 | 1010.79 ± 0.28 | 1.548 ± 0.032
